From US20050282888A1, “Fungicidal composition” (Sumitomo Chemical Company, Limited, priority 2004, published 2005)

These compounds were tested on Plasmopara viticola (assay: Test Example 1: spray test on grape seedlings inoculated with Plasmopara viticola (protective value)). Details: Plasmopara viticola, 168 h, single active ingredient, wettable powder sprayed on grape seedlings before inoculation, assessed after one night plus 7 days, read-out: Actual protective value.
Format: in vivo, Plasmopara viticola on grape (variety: Berry A)
Description: Next, it is shown that the present invention compositions have an excellent controlling activity against plant diseases as test example. Generally, an expected controlling value, when two active ingredient compounds are mixed and applied, can be calculated by the Colby's formula described below. E=X+Y−(X×Y)/100 • X: protective value (%) when treatment is carried out by using an active ingredient compound A at the concentration of m ppm. • Y: protective value (%) when treatment is carried out by using an active ingredient compound B at the concentration of n ppm • E: protective value (%) when treatment is carried out by using the active ingredient compound A at the concentration of m ppm and the active ingredient compound B at the concentration of n ppm (hereinafter referred to as “expected protective value”) And, generally speaking, if actual protective value (%) when treatment is carried out by actually mixing two kinds of active ingredient compounds is not less than the expected protective value (%), it can be said that there is a mixing effect.
Sandy loam soil was compacted in a plastic pot, and a grape (variety: Berry A) was seeded and grown in a green house for 40 days. The test drug formulated to wettable powder according to Formulation Example 5, then, diluted with water to provide prescribed concentration, and these diluted solutions were sprayed onto stems and leaves so as to give sufficient adhesion on the surface of grape leaves. After that, a suspension of zoosporangia of Plasmopara viticola was inoculated by spraying to stems and leaves of the grape seedling. After inoculation, the grape seedling was first grown for one night at 23° C. under humid, then further grown for 7 days in the green house. Then, the ratio of diseased area (%) of Plasmopara viticola on stems and leaves of the grape seedling was investigated and the actual protective value was obtained according to the formula described below form the investigated result. protective value (%)={[the ratio of diseased area of non treated plant (%)−the ratio of diseased area of treated plant (%)/]/[the ratio of diseased area of non treated plant (%)]}×100
In the case of C#CCOc1ccc(CCC(=O)NCc2ccc(C)cc2)cc1OC [(I-1), N-(4-methylbenzyl)-3-{3-methoxy-4-(2-propynyloxy)phenyl}pro panamide], the pest or weed control at 50 ppm is reported as 100%. Work on C#CCOc1ccc(CCC(=S)NCc2ccc(C)cc2)cc1OC [(I-3), N-(4-methylbenzyl)-3-(3-methoxy-4-(2-propynyloxy)phenyl}pro panthioamide] yielded a pest or weed control at 50 ppm of 100%. C#CCOc1ccc(CCC(=S)NCc2ccc(C)c(C)c2)cc1OC [(I-4), N-(3,4-dimethylbenzyl)-3-{3-methoxy-4-(2-propynyloxy)phenyl}propanthioamide] showed a pest or weed control at 50 ppm of 100%. Work on C#CCOc1ccc(CCC(=O)NC(C#N)c2ccccc2)cc1OC (stereo not drawn) [(I-5), N-(1-phenyl-1-cyanomethyl)-3-{3-methoxy-4-(2-propynyloxy)phenyl}propanamide] yielded a pest or weed control at 50 ppm of 100%. Compound C#CCOc1ccc(CCC(=O)NC(C#N)c2ccc(C)cc2)cc1OC (stereo not drawn) [(I-6), N-{1-(4-methylphenyl)-1-cyanomethyl)-3-(3-methoxy-4-(2-propynyloxy)phenyl}propanamide] has a pest or weed control at 50 ppm of 100%. CCOc1ccc(CCC(=O)NC(C#N)c2ccc(C)cc2)cc1OC (stereo not drawn) [(I-7), N-{1-(4-methylphenyl)-1-cyanomethyl}-3-(3-methoxy-4-ethoxyphenyl)propanamide] gave a pest or weed control at 50 ppm of 100%. Work on C#CCOc1ccc(CCC(=O)NCc2ccc(CC)cc2)cc1OC [(I-8), N-(4-ethylbenzyl)-3-{3-methoxy-4-(2-propynyloxy)phenyl}prop anamide] yielded a pest or weed control at 50 ppm of 100%. Work on C#CCOc1ccc(CCC(=O)NC(C#N)c2ccc(CC)cc2)cc1OC (stereo not drawn) [(I-9), N-{1-(4-ethylphenyl)-1-cyanomethyl)-3-(3-methoxy-4-(2-propynyloxy)phenyl)propanamide] yielded a pest or weed control at 50 ppm of 100%. In the case of C#CCOc1ccc(CCC(=O)NCc2ccc(Cl)cc2)cc1OC [(I-10), N-(4-chlorobenzyl)-3-(3-methoxy-4-(2-propynyloxy)phenyl}pro panamide], the pest or weed control at 50 ppm is reported as 100%. For C#CCOc1ccc(CCC(=O)NCc2ccc(Cl)c(Cl)c2)cc1OC [(I-11), N-(3,4-dichlorobenzyl)-3-{3-methoxy-4-(2-propynyloxy)phenyl}propanamide], the pest or weed control at 50 ppm was 100%. With C#CCOc1ccc(CCC(=S)NCc2ccc(Cl)cc2)cc1OC [(I-13), N-(4-chlorobenzyl)-3-(3-methoxy-4-(2-propynyloxy)phenyl}pro panthioamide] the pest or weed control at 50 ppm was 100%. C#CCOc1ccc(CCC(=S)NCc2ccc(Cl)c(Cl)c2)cc1OC [(I-14), N-(3,4-dichlorobenzyl)-3-{3-methoxy-4-(2-propynyloxy)phenyl}propanthioamide] was tested, and the pest or weed control at 50 ppm was 100%. C#CCOc1ccc(CCC(=S)NCc2ccc(Cl)cc2)cc1OCC [(I-15), N-(4-chlorobenzyl)-3-(3-ethoxy-4-(2-propynyloxy)phenyl)prop anthioamide] was tested, and the pest or weed control at 50 ppm was 100%. C#CCOc1ccc(CCC(=O)NC(C#N)c2ccc(Cl)cc2)cc1OC (stereo not drawn) [(I-16), N-{1-(4-chlorophenyl)-1-cyanomethyl}-3-{3-methoxy-4-(2-propynyloxy)phenyl}propanamide] showed a pest or weed control at 50 ppm of 100%. CCOc1ccc(CCC(=O)NC(C#N)c2ccc(Cl)cc2)cc1OC (stereo not drawn) [(I-17), N-{1-(4-chlorophenyl)-1-cyanomethyl)-3-(3-methoxy-4-ethoxyphenyl)propanamide] showed a pest or weed control at 50 ppm of 100%. C#CCOc1ccc(CCC(=S)NCc2ccc(Br)cc2)cc1OC [(I-19), N-(4-bromobenzyl)-3-{3-methoxy-4-(2-propynyloxy)phenyl)prop anthioamide] was tested, and the pest or weed control at 50 ppm was 100%. C#CCOc1ccc(CCC(=O)NC(C#N)c2ccc(Br)cc2)cc1OC (stereo not drawn) [(I-20), N-{1-(4-bromophenyl)-1-cyanomethyl}-3-(3-methoxy-4-(2-propynyloxy)phenyl}propanamide] showed a pest or weed control at 50 ppm of 100%. C#CCOc1ccc(CCC(=O)NCc2ccc3c(c2)CCC3)cc1OC [(I-22), N-{(indan-5-yl)methyl}-3-{3-methoxy-4-(2-propynyloxy)phenyl}propanamide] showed a pest or weed control at 50 ppm of 100%. Work on C#CCOc1ccc(CCC(=S)NCc2ccc3c(c2)CCC3)cc1OC [(I-23), N-(indan-5-ylmethyl)-3-(3-methoxy-4-(2-propynyloxy)phenyl)p ropanthioamide] yielded a pest or weed control at 50 ppm of 100%. For C#CCOc1ccc(CCC(=O)NC(C#N)c2ccc3c(c2)CCC3)cc1OC (stereo not drawn) [(I-24), N-{1-(indan-5-yl)-1-cyanomethyl}-3-{3-methoxy-4-(2-propynyloxy)phenyl}propanamide], the pest or weed control at 50 ppm was 100%. C#CCOc1ccc(CCC(=O)NCc2ccc3c(c2)CCCC3)cc1OC [(I-25), N-((5,6,7,8-tetrahydronaphthalene-2-yl)methyl)-3-(3-methoxy-4-(2-propynyloxy)phenyl)propanamide] was tested, and the pest or weed control at 50 ppm was 100%. C#CCOc1ccc(CCC(=S)NCc2ccc3c(c2)CCCC3)cc1OC [(I-26), N-(5,6,7,8-tetrahydronaphthalene-2-ylmethyl)-3-(3-methoxy-4-(2-propynyloxy)phenyl}propanthioamide] showed a pest or weed control at 50 ppm of 100%. For C#CCOc1ccc(CCC(=O)NCc2ccc3ccccc3c2)cc1OC [(I-28), N-{(naphthalene-2-yl)methyl}-3-{3-methoxy-4-(2-propynyloxy)phenyl}propanamide], the pest or weed control at 50 ppm was 100%. C#CCOc1ccc(CCC(=S)NCc2ccc3ccccc3c2)cc1OC [(I-29), N-{(naphthalene-2-yl)methyl}-3-{3-methoxy-4-(2-propynyloxy)phenyl)propanthioamide] gave a pest or weed control at 50 ppm of 100%. COc1ccc(C(=CC(=O)N2CCOCC2)c2ccc(Cl)cc2)cc1OC [dimethomorph, 4-[3-(4-chlorophenyl)-3-(3,4-dimethoxyphenyl)acryloyl]morph oline, reference compound] showed a pest or weed control at 50 ppm of 100%.

Same assay, conditions: single active ingredient, 50 ppm, wettable powder sprayed on grape seedlings before inoculation, assessed after one night plus 7 days
Work on C#CCOc1ccc(CCC(=O)NCc2ccc(C)c(C)c2)cc1OC [(I-2)] yielded an Actual protective value of 100%. With C#CCOc1ccc(CCC(=O)NCc2ccc(Cl)cc2)cc1OCC [(I-12), N-(4-chlorobenzyl)-3-{3-ethoxy-4-(2-propionyloxy)phenyl}pro panamide] the Actual protective value was 100%. With C#CCOc1ccc(CCC(=O)NCc2ccc(Br)cc2)cc1OC [(I-18)] the Actual protective value was 100%. Work on CCOc1ccc(CCC(=O)NC(C#N)c2ccc(Br)cc2)cc1OC (stereo not drawn) [(I-21)] yielded an Actual protective value of 100%. C#CCOc1ccc(CCC(=O)NC(C#N)c2ccc3c(c2)CCCC3)cc1OC (stereo not drawn) [(I-27), N-{1-(5,6,7,8-tetrahydronaphthalene-2-yl)-1-cyanomethyl}-3-(3-methoxy-4-(2-propyonyloxy)phenyl)propanamide] was tested, and the Actual protective value was 100%.
